Measured values from US10472341B2, “Bicyclic tetrahydrothiazepine derivatives useful for the treatment of neoplastic and/or infectious diseases” (APEIRON BIOLOGICS AG, priority 2015, dated 2019).
Like-named read-outs stand apart in the source and are kept apart here.

Assays:
[1] = tested on: aCD3/aCD28-stimulated human CD4+-T-cells; experiment: IL-2 production and activation markers in aCD3/aCD28 stimulated isolated human CD4+-T-cells; type: cell-based; details: IL-2 production at 3 μM compound
Procedure: • Buffy coat content was transferred to sterile plastic bottle and filled up to 480 ml with PBS, and distributed equally to 16×50 ml tubes (30 ml/tube) • Underlayed with ˜11 ml Lymphoprep and centrifuged 20 min (2200 rpm) • The interphase containing lymphocytes was taken off with transfer pipette, cells were washed twice with PBS and pooled to one tube to determine cell count (Coulter Diff ACT) Isolation of Immune Cell Subfractions from PBMCs by MACS • PBMCs were resuspended in MACS buffer (80 μl MACS-buffer/10^7 cells) and cells were isolated with Auto-MACS device using respective kits following manufacturer's recommendations TCR Stimulation and Measurement of T Cell Activation
Isolated T cells were plated in Xvivo medium at 1.5*10 ^5 cells per in 96 well culture plates and TCR-stimulated with anti-CD3/28 mAbs in the presence of compound as indicated. Cytokine production was determined at 24 h or 48 h following TCR stimulation in cell culture supernatants using commercially available ELISA kits (BD and eBioscience) as recommended by the manufacturer. T cell proliferation and CD25 expression (CD25-PC5 reagent purchased from Beckman Coulter) was determined by flow cytometry (Beckman-Coulter FC500) and analysed with Kaluza Software. For measurement of CD69 expression, isolated CD4 and CD8 T cells were plated in Xvivo medium at […] per in 96 well culture plates and TCR-stimulated with anti-CD3/28 mAbs in the presence of compound. CD69 expression was determined at 24 h following TCR stimulation by flow cytometry (CD4eF450, CD8APCeF780 and CD69-PC7 reagent purchased from eBioscience) and analysed with Kaluza Software.
Buffy coats were obtained from Austrian Red Cross, diluted 3 fold with PBS and layered onto an isotonic Ficoll separating solution d=1.077 g/m in 50 ml centrifuge tubes. The tubes were centrifuged at 914 g for 25 min at room temperature with the brakes off. The PBMC layer was removed and washed twice with ice-cold PBS. CD4 T cells were isolated using CD4 microbeads (Milteny) and the AutoMACS device following manufacturer's instructions.
Compound examples of the present invention were classified according to the following activity criteria and are listed in Table 4a: • Activity Class A: IL-2 production at 3 μM compound concentration >10 ng/mL • Activity Class B: IL-2 production at 3 μM compound concentration between 2-10 ng/mL • Activity Class C: IL-2 production at 3 μM compound concentration between 2-fold increase as compared to mean IL-2 production of stimulated cells in the absence of compounds and <2 ng/mL

[2] = tested on: aCD3/aCD28-stimulated human PBMCs; experiment: Cytokine production in aCD3/aCD28 stimulated human PBMCs; type: cell-based; details: PBMC, 18 h
Procedure: In order to determine the immune modulatory effect of compounds of compounds of the present invention in human PBMCs, compounds were assessed in the following assay set-up:
Buffy coats were obtained from a local hospital, diluted 3 fold with PBS and layered onto an isotonic Ficoll separating solution d=1.077 g/mL in 50 mL centrifuge tubes. The tubes were centrifuged at 914 g for 25 min at room temperature with the brakes off. The PBMC layer was removed and washed twice with ice-cold PBS. Erythrocytes were lysed by addition of ddH2O and cells were resuspended in X-Vivo15 (Lonza).
1e6 cells/mL were stimulated with soluble anti CD3/CD28 antibodies (1 μg/mL both, clones OKT3 and 28.2) in the presence of described compounds. Cells were incubated for 18 h at 37° C., 5% CO2. Assay plates were centrifuged at 400 g for 5 min and supernatants harvested. Cytokine concentration in tissue culture supernatants were determined with MSD or HTRF kits (MSD and Cisbio), according to manufacturer's instructions.

[3] = enhancement of IFN-γ production, read-out: Activity Class IFN-γ
[4] = enhancement of IL-2 production, read-out: Activity Class IL-2

Row | Compound | Activity Class CD4+ [1] | EC50 [2, 3] [µM] | EC50 [2, 4] [µM]
1 | Cl.N[C@H]1CS(=O)(=O)c2cc(F)c(C(=O)N[C@@H]3CC3(F)F)cc2N(Cc2ccc(Cl)cc2)C1=O (single isomer, unassigned) [Example 106] | B (IL-2 production at 3 μM compound concentration between 2-10 ng/mL) | – | –
2 | Cl.N[C@H]1CSc2ccc(C(=O)NC3CCOCC3)cc2N(Cc2ccc(OC(F)(F)F)cc2)C1=O [Example 8, (3R)-3-amino-N-(oxan-4-yl)-4-oxo-5-{[4-(trifluoromethoxy)phenyl]methyl}-2,3,4,5-tetrahydro-1,5-benzothiazepine-7-carboxamide hydrochloride] | C (IL-2 production at 3 μM compound concentration between 2-fold increase as compared to mean IL-2 production of stimulated cells in the absence of compounds and <2 ng/mL) | – | –
3 | CCCCNC(=O)c1ccc2c(c1)N(Cc1ccc(N3CCOCC3)cc1)C(=O)[C@@H](N)CS2.Cl [Example 13, (3R)-3-amino-N-butyl-5-{[4-(morpholin-4-yl)phenyl]methyl}-4-oxo-2,3,4,5-tetrahydro-1,5-benzothiazepine-7-carboxamide hydrochloride] | C (IL-2 production at 3 μM compound concentration between 2-fold increase as compared to mean IL-2 production of stimulated cells in the absence of compounds and <2 ng/mL) | – | –
4 | Cl.N[C@H]1CSc2cc(F)c(C(=O)NC3CCOCC3)cc2N(Cc2ccc(OC(F)(F)F)cc2)C1=O [Example 14, (3R)-3-amino-8-fluoro-N-(oxan-4-yl)-4-oxo-5-{[4-(trifluoromethoxy)phenyl]methyl}-2,3,4,5-tetrahydro-1,5-benzothiazepine-7-carboxamide hydrochloride] | C (IL-2 production at 3 μM compound concentration between 2-fold increase as compared to mean IL-2 production of stimulated cells in the absence of compounds and <2 ng/mL) | – | –
5 | CC(C)NC(=O)c1cc2c(cc1F)SC[C@H](N)C(=O)N2Cc1ccc(OC(F)(F)F)cc1.Cl [Example 15, (3R)-3-amino-8-fluoro-4-oxo-N-(propan-2-yl)-5-{[4-(trifluoromethoxy)phenyl]-methyl}-2,3,4,5-tetrahydro-1,5-benzothiazepine-7-carboxamide hydrochloride] | B (IL-2 production at 3 μM compound concentration between 2-10 ng/mL) | – | –
6 | Cl.N[C@H]1CSc2cc(F)c(C(=O)NCc3ccccc3)cc2N(Cc2ccc(OC(F)(F)F)cc2)C1=O [Example 16, (3R)-3-amino-N-benzyl-8-fluoro-4-oxo-5-{[4-(trifluoromethoxy)phenyl]methyl}-2,3,4,5-tetrahydro-1,5-benzothiazepine-7-carboxamide hydrochloride] | B (IL-2 production at 3 μM compound concentration between 2-10 ng/mL) | – | –
7 | CC(=O)NCCCCCOc1ccc(CNC(=O)c2ccc3c(c2)N(Cc2ccc(OC(F)(F)F)cc2)C(=O)[C@@H](N)CS3)cc1.Cl [Example 19, (3R)-3-amino-N-({4-[(5-acetamidopentyl)oxy]phenyl}methyl)-4-oxo-5-{[4-(trifluoromethoxy)phenyl]methyl}-2,3,4,5-tetrahydro-1,5-benzothiazepine-7-carboxamide hydrochloride] | C (IL-2 production at 3 μM compound concentration between 2-fold increase as compared to mean IL-2 production of stimulated cells in the absence of compounds and <2 ng/mL) | – | –
8 | CC(C)(C)c1cc(NC(=O)c2ccc3c(c2)N(Cc2ccc(Cl)cc2)C(=O)[C@@H](N)CS3)no1.Cl [Example 24, (3R)-3-amino-N-(5-tert-butyl-1,2-oxazol-3-yl)-5-[(4-chlorophenyl)methyl]-4-oxo-2,3,4,5-tetrahydro-1,5-benzothiazepine-7-carboxamide hydrochloride] | C (IL-2 production at 3 μM compound concentration between 2-fold increase as compared to mean IL-2 production of stimulated cells in the absence of compounds and <2 ng/mL) | – | –
9 | C[C@@H](NC(=O)c1ccc2c(c1)N(Cc1ccc(Cl)cc1)C(=O)[C@@H](N)CS2(=O)=O)C1CCOCC1 [Example 166, (3R)-3-amino-5-[(4-chlorophenyl)methyl]-N-[(1R)-1-(oxan-4-yl)ethyl]-1,1,4-trioxo-2,3,4,5-tetrahydro-1λ^6,5-benzothiazepine-7-carboxamide] | – | > 5.01 | > 5.01
10 | N[C@H]1CS(=O)(=O)c2ccc(C(=O)N[C@@H]3CC3(F)F)cc2N(Cc2ccccc2)C1=O [Example 167, (3R)-3-amino-5-benzyl-N-[(1R)-2,2-difluorocyclopropyl]-1,1,4-trioxo-2,3,4,5-tetrahydro-1λ^6,5-benzothiazepine-7-carboxamide] | – | > 5.01 | > 5.01
11 | Cc1ccc(CNC(=O)c2ccc3c(c2)N(Cc2ccc(Cl)cc2)C(=O)[C@@H](N)CS3(=O)=O)cn1 [Example 168, (3R)-3-amino-5-[(4-chlorophenyl)methyl]-N-[(6-methylpyridin-3-yl)methyl]-1,1,4-trioxo-2,3,4,5-tetrahydro-1λ^6,5-benzothiazepine-7-carboxamide] | – | 1.58 to 5.01 | > 5.01
12 | N#Cc1ccc(CN2C(=O)[C@@H](N)CS(=O)(=O)c3cc(F)c(C(=O)NCc4ccc(F)cc4)cc32)cc1 [Example 170, (3R)-3-amino-5-[(4-cyanophenyl)methyl]-8-fluoro-N-[(4-fluorophenyl)methyl]-1,1,4-trioxo-2,3,4,5-tetrahydro-1λ^6,5-benzothiazepine-7-carboxamide] | – | < 1.58 | < 1.58
13 | COCCOCCNC(=O)c1cc2c(cc1F)S(=O)(=O)C[C@H](N)C(=O)N2Cc1ccc(Cl)cc1 [Example 172, (3R)-3-amino-5-[(4-chlorophenyl)methyl]-8-fluoro-N-[2-(2-methoxyethoxy)ethyl]-1,1,4-trioxo-2,3,4,5-tetrahydro-1λ^6,5-benzothiazepine-7-carboxamide] | – | 1.58 to 5.01 | > 5.01
14 | C#CCCNC(=O)c1cc2c(cc1F)S(=O)(=O)C[C@H](N)C(=O)N2Cc1ccc(Cl)cc1 [Example 173, (3R)-3-amino-N-(but-3-yn-1-yl)-5-[(4-chlorophenyl)methyl]-8-fluoro-1,1,4-trioxo-2,3,4,5-tetrahydro-1λ^6,5-benzothiazepine-7-carboxamide] | – | 1.58 to 5.01 | > 5.01
15 | C#CCCCNC(=O)c1cc2c(cc1F)S(=O)(=O)C[C@H](N)C(=O)N2Cc1ccc(Cl)cc1 [Example 174, (3R)-3-amino-5-[(4-chlorophenyl)methyl]-8-fluoro-1,1,4-trioxo-N-(pent-4-yn-1-yl)-2,3,4,5-tetrahydro-1λ^6,5-benzothiazepine-7-carboxamide] | – | 1.58 to 5.01 | 1.58 to 5.01
16 | COc1ccc(CNC(=O)c2ccc3c(c2)N(Cc2ccc(Cl)cc2)C(=O)[C@@H](N)CS3(=O)=O)cn1 [Example 177, (3R)-3-amino-5-[(4-chlorophenyl)methyl]-N-[(6-methoxypyridin-3-yl)methyl]-1,1,4-trioxo-2,3,4,5-tetrahydro-1λ^6,5-benzothiazepine-7-carboxamide] | – | < 1.58 | 1.58 to 5.01
17 | N[C@H]1CS(=O)(=O)c2ccc(C(=O)NC3CC4(COC4)C3)cc2N(Cc2ccc(Cl)cc2)C1=O [Example 181, (3R)-3-amino-5-[(4-chlorophenyl)methyl]-N-{2-oxaspiro[3.3]heptan-6-yl}-1,1,4-trioxo-2,3,4,5-tetrahydro-1λ^6,5-benzothiazepine-7-carboxamide] | – | > 5.01 | > 5.01
18 | CCN[C@H]1CS(=O)(=O)c2cc(F)c(C(=O)NCCCC(F)(F)F)cc2N(Cc2ccc(Cl)cc2)C1=O [Example 182, (3R)-5-[(4-chlorophenyl)methyl]-3-(ethylamino)-8-fluoro-1,1,4-trioxo-N-(4,4,4-trifluorobutyl)-2,3,4,5-tetrahydro-1λ^6,5-benzothiazepine-7-carboxamide] | – | 1.58 to 5.01 | > 5.01
